Reference: patent US7566712B2, “Biaryl piperazinyl-pyridine analogues” (Neurogen Corporation, priority 2003, dated 2009)
pIC50: −log10 of the molar value.

Biological target: T1, human capsaicin receptor (Homo sapiens, UniProt Q8NER1)
T1 construct: pBK-CMV expression construct encoding the full length human capsaicin receptor; expressed in transfected cells
Assay: Calcium mobilization assay, determination of antagonist activity (Example 6)
Format: cell-based
Settings: Table II; determined as described in Example 6 (antagonist activity); "*" = 1 micromolar or less
Procedure, shortened: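 HEK293 clonal lines stably expressing full-length human capsaicin receptor, loaded with Fluo-3 AM in KRH buffer pH 7.4, 1–2 h at 37 °C. Compounds (1–5 μM final) preincubated 0.5–6 h at room temperature, then capsaicin at its EC50 added. FLIPR/Fluoroskan calcium signal; IC50 as 50% decrease of capsaicin response.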

T1 sequence (Q8NER1 whole entry): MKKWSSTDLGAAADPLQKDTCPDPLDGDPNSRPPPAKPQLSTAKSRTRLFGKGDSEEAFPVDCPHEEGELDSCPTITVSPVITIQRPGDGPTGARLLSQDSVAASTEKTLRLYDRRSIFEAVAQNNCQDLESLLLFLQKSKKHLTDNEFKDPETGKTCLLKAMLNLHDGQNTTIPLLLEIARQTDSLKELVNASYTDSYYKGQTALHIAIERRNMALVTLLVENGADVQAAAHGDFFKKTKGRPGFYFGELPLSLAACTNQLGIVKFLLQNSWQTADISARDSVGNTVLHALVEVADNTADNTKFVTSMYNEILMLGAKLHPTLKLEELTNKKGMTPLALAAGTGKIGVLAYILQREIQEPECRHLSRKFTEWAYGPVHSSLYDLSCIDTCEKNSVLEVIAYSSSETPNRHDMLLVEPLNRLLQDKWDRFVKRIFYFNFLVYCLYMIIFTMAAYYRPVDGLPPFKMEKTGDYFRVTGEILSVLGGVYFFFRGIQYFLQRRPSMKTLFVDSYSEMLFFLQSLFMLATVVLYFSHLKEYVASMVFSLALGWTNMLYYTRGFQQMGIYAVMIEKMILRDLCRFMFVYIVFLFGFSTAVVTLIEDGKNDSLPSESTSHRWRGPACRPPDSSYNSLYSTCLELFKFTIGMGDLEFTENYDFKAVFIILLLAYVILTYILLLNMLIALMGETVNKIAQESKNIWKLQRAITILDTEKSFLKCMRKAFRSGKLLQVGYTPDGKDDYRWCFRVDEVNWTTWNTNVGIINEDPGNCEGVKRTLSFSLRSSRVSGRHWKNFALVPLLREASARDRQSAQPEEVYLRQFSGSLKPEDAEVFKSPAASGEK

`Cc1cc(-c2cc(N3CCN(c4ncccc4C(F)(F)F)CC3)nc(-n3c(C)ccc3C)n2)ccc1F` [Example 877, 2-(2,5-dimethyl-1H-pyrrol-1-yl)-4-(4-fluoro-3-methylphenyl)-6-{4-[3-(trifluoromethyl)pyridin-2-yl]piperazin-1-yl}pyrimidine] was tested, and the pIC50 was at least 6.00.

Work on `CN(C)/C=C\C(=O)c1nc(-c2ccc(F)c(F)c2)cc(N2CCN(c3ncccc3C(F)(F)F)CC2)n1` [Example 878, (2Z)-1-(4-(3,4-difluorophenyl)-6-{4-[3-(trifluoromethyl)pyridin-2-yl]piperazin-1-yl}pyrimidin-2-yl)-3-(dimethylamino)prop-2-en-1-one] yielded a pIC50 of at least 6.00.

With `C[C@@H]1CN(c2ncccc2Cl)CCN1c1cc(-c2cncc(C#N)c2)nc(N2CCCC2)n1` [Example 879, 5-{6-[(2R)-4-(3-chloropyridin-2-yl)-2-methylpiperazin-1-yl]-2-pyrrolidin-1-ylpyrimidin-4-yl}nicotinonitrile] the pIC50 was at least 6.00.

For `CC1CCCN1c1nc(-c2cncc(C#N)c2)cc(N2CCN(c3ncccc3Cl)C[C@H]2C)n1` (stereo partly drawn) [Example 880, 5-[6-[4-(3-chloropyridin-2-yl)-2-methylpiperazin-1-yl]-2-(2-methylpyrrolidin-1-yl)pyrimidin-4-yl]nicotinonitrile], the pIC50 was at least 6.00.

Compound `CC1CCCN1c1nc(-c2cccnc2)cc(N2CCN(c3ncccc3Cl)C[C@H]2C)n1` (stereo partly drawn) [Example 882, 4-[4-(3-chloropyridin-2-yl)-2-methylpiperazin-1-yl]-2-(2-methylpyrrolidin-1-yl)-6-pyridin-3-ylpyrimidine] has a pIC50 of at least 6.00.

`C[C@@H]1CN(c2ncccc2Cl)CCN1c1cc(-c2cccnc2)nc(N2CCCC2)n1` [Example 883, 4-[(2R)-4-(3-chloropyridin-2-yl)-2-methylpiperazin-1-yl]-6-pyridin-3-yl-2-pyrrolidin-1-ylpyrimidine] was tested, and the pIC50 was at least 6.00.

`O=C1CNCCN1c1nc(-c2ccc(F)c(Cl)c2)cc(N2CCN(c3ncccc3C(F)(F)F)CC2)n1` [Example 884, 1-(4-(3-chloro-4-f1uorophenyl)-6-{4-[3-(trifluoromethyl)pyridin-2-yl]piperazin-1-yl}pyrimidin-2-yl)piperazin-2-one] was tested, and the pIC50 was at least 6.00.

In the case of `CCCN1CCN(c2nc(-c3ccc(F)c(Cl)c3)cc(N3CCN(c4ncccc4C(F)(F)F)CC3)n2)C(=O)C1` [Example 885, 1-(4-(3-chloro-4-fluorophenyl)-6-{4-[3-(trifluoromethyl)pyridin-2-yl]piperazin-1-yl}pyrimidin-2-yl)-4-propylpiperazin-2-one], the pIC50 was at least 6.00.

`N#Cc1cncc(-c2cc(N3CCN(c4ncccc4C(F)(F)F)CC3)nc(N3CCCC3)n2)c1` [Example 886, 5-(2-pyrrolidin-1-yl-6-{4-[3-(trifluoromethyl)pyridin-2-yl]piperazin-1-yl}pyrimidin-4-yl)nicotinonitrile] gave a pIC50 of at least 6.00.

In the case of `CC1CCCN1c1nc(-c2cncc(C#N)c2)cc(N2CCN(c3ncccc3C(F)(F)F)CC2)n1` (stereo not drawn) [Example 887, 5-(2-(2-methylpyrrolidin-1-yl)-6-{4-[3-(trifluoromethyl)pyridin-2-yl]piperazin-1-yl}pyrimidin-4-yl)nicotinonitrile], the pIC50 was at least 6.00.

`CCCN1CCN(c2nc(-c3ccc(F)c(Cl)c3)cc(N3CCN(c4ncccc4C)CC3)n2)CC1` [Example 889, 4-(3-chloro-4-fluorophenyl)-6-[4-(3-methylpyridin-2-yl)piperazin-1-yl]-2-(4-propylpiperazin-1-yl)pyrimidine] showed a pIC50 of at least 6.00.

`C[C@@H]1CN(c2ncccc2Cl)CCN1c1cc(-c2ccc(F)cc2)nc(N2CCN3CCC[C@H]3C2)n1` [Example 890, (8aS)-2-[4-[(2R)-4-(3-chloropyridin-2-yl)-2-methylpiperazin-1-yl]-6-(4-fluorophenyl)pyrimidin-2-yl]octahydropyrrolo[1,2-a]pyrazine] was tested, and the pIC50 was at least 6.00.

Compound `Fc1ccc(-c2cc(N3CCN(c4ncccc4C(F)(F)F)CC3)nc(N3CCN4CCC[C@H]4C3)n2)cc1Cl` [Example 891, (8aS)-2-(4-(3-chloro-4-fluorophenyl)-6-{4-[3-(trifluoromethyl)pyridin-2-yl]piperazin-1-yl}pyrimidin-2-yl)octahydropyrrolo[1,2-a]pyrazine] has a pIC50 of at least 6.00.

Work on `FC(F)(F)c1cccnc1N1CCN(c2cc(-c3cccc(Cl)c3)nc(N3CCN4CCC[C@H]4C3)n2)CC1` [Example 892, (8aS)-2-(4-(3-chlorophenyl)-6-{4-[3-(trifluoromethyl)pyridin-2-yl]piperazin-1-yl}pyrimidin-2-yl)octahydropyrrolo[1,2-a]pyrazine] yielded a pIC50 of at least 6.00.

For `CN(C)CCC(O)c1nc(-c2ccc(F)c(F)c2)cc(N2CCN(c3ncccc3C(F)(F)F)CC2)n1` (stereo not drawn) [Example 893], the pIC50 was at least 6.00.

In the case of `C[C@@H]1CN(c2ncccc2F)CCN1c1cc(-c2ccc(F)c(F)c2)nc(Cl)n1` [Example 894, 2-chloro-4-(3,4-difluorophenyl)-6-[(2R)-4-(3-fluoropyridin-2-yl)-2-methylpiperazin-1-yl]pyrimidine], the pIC50 was at least 6.00.

For `CC1CCCN1c1nc(-c2ccc(F)c(F)c2)cc(N2CCN(c3ncccc3F)C[C@H]2C)n1` (stereo partly drawn) [Example 895, 4-(3,4-difluorophenyl)-6-[4-(3-fluoropyridin-2-yl)-2-methylpiperazin-1-yl]-2-(2-methylpyrrolidin-1-yl)pyrimidine], the pIC50 was at least 6.00.

For `C[C@@H]1CN(c2ncccc2F)CCN1c1cc(-c2ccc(F)c(F)c2)nc(N2CCCC2)n1` [Example 896, 4-(3,4-difluorophenyl)-6-[(2R)-4-(3-fluoropyridin-2-yl)-2-methylpiperazin-1-yl]-2-pyrrolidin-1-ylpyrimidine], the pIC50 was at least 6.00.

With `C[C@@H]1CN(c2ncccc2F)CCN1c1cc(-c2ccc(F)c(F)c2)nc(N2CCOCC2)n1` [Example 897, 4-{4-(3,4-difluorophenyl)-6-[(2R)-4-(3-fluoropyridin-2-yl)-2-methylpiperazin-1-yl]pyrimidin-2-yl}morpholine] the pIC50 was at least 6.00.

Compound `Cc1cc(-c2cc(N3CCN(c4ncccc4Cl)C[C@@H]3C)nc(Cl)n2)ccc1F` [Example 898, 2-chloro-4-[(2S)-4-(3-chloropyridin-2-yl)-2-methylpiperazin-1-yl]-6-(4-fluoro-3-methylphenyl)pyrimidine] has a pIC50 of at least 6.00.

`Cc1cc(-c2cc(N3CCN(c4ncccc4Cl)C[C@@H]3C)nc(N3CCCC3)n2)ccc1F` [Example 902, 4-[(2S)-4-(3-chloropyridin-2-yl)-2-methylpiperazin-1-yl]-6-(4-fluoro-3-methylphenyl)-2-pyrrolidin-1-ylpyrimidine] showed a pIC50 of at least 6.00.

With `Cc1cc(-c2cc(N3CCN(c4ncccc4Cl)C[C@@H]3C)nc(N3CCOCC3)n2)ccc1F` [Example 904, 4-[4-[(2S)-4-(3-chloropyridin-2-yl)-2-methylpiperazin-1-yl]-6-(4-fluoro-3-methylphenyl)pyrimidin-2-yl]morpholine] the pIC50 was at least 6.00.

`Cc1cc(-c2cc(N3CCN(c4ncccc4Cl)C[C@H]3C)nc(N(C)C(C)CO)n2)ccc1F` (stereo partly drawn) [Example 905, 2-[[4-[4-(3-chloropyridin-2-yl)-2-methylpiperazin-1-yl]-6-(4-fluoro-3-methylphenyl)pyrimidin-2-yl](methyl)amino]propan-1-ol] showed a pIC50 of at least 6.00.

`C[C@@H]1CN(c2nccnc2Cl)CCN1c1nc(Cl)cc(-c2ccc(F)c(Cl)c2)n1` [Example 906, 4-chloro-6-(3-ohloro-4-fluorophenyl)-2-[4-(3-chloropyrazin-2-yl)-2-methylpiperazin-1-yl]pyrimidine] was tested, and the pIC50 was at least 6.00.

`CC1CCCN1c1nc(-c2ccc(F)c(Cl)c2)cc(N2CCN(c3nccnc3Cl)C[C@H]2C)n1` (stereo partly drawn) [Example 908] was tested, and the pIC50 was at least 6.00.

`C[C@@H]1CN(c2nccnc2Cl)CCN1c1cc(-c2ccc(F)c(Cl)c2)nc(N2CCCC2)n1` [Example 909, 4-(3-chloro-4-fluorophenyl)-6-[(2R)-4-(3-chloropyrazin-2-yl)-2-methylpiperazin-1-yl]-2-pyrrolidin-1-ylpyrimidine] showed a pIC50 of at least 6.00.

`C[C@@H]1CN(c2nccnc2Cl)CCN1c1cc(-c2ccc(F)c(Cl)c2)nc(N2CCOCC2)n1` [Example 910, 4-{4-(3-chloro-4-fluorophenyl)-6-[(2R)-4-(3-chloropyrazin-2-yl)-2-methylpiperazin-1-yl]pyrimidin-2-yl}morpholine] was tested, and the pIC50 was at least 6.00.

`CC1CCCN1c1cc(-c2ccc(F)c(Cl)c2)nc(N2CCN(c3nccnc3Cl)C[C@H]2C)n1` (stereo partly drawn) [Example 911] gave a pIC50 of at least 6.00.

`Cc1cc(-c2cc(N3CCN(c4nccnc4Cl)C[C@H]3C)nc(Cl)n2)ccc1F` [Example 912, 2-chloro-4-[(2R)-4-(3-chloropyrazin-2-yl)-2-methylpiperazin-1-yl]-6-(4-fluoro-3-methylphenyl)pyrimidine] showed a pIC50 of at least 6.00.

With `Cc1cc(-c2cc(N3CCN(c4nccnc4Cl)C[C@H]3C)nc(N3CCCC3)n2)ccc1F` [Example 914, 4-[(2R)-4-(3-chloropyrazin-2-yl)-2-methylpiperazin-1-yl]-6-(4-fluoro-3-methylphenyl)-2-pyrrolidin-1-ylpyrimidine] the pIC50 was at least 6.00.

In the case of `Cc1cc(-c2cc(N3CCN(c4nccnc4Cl)C[C@H]3C)nc(N3CCOCC3)n2)ccc1F` [Example 916, 4-[4-[(2R)-4-(3-chloropyrazin-2-yl)-2-methylpiperazin-1-yl]-6-(4-fluoro-3-methylphenyl)pyrimidin-2-yl]morpholine], the pIC50 was at least 6.00.

In the case of `Cc1cc(-c2cc(N3CCCC3C)nc(N3CCN(c4ncccc4Cl)C[C@@H]3C)n2)ccc1F` (stereo partly drawn) [Example 917, 2-[4-(3-chloropyridin-2-yl)-2-methylpiperazin-1-yl]-4-(4-fluoro-3-methylphenyl)-6-(2-methylpyrrolidin-1-yl)pyrimidine], the pIC50 was at least 6.00.

`COc1ccc(Cl)c(N2CCN(c3cc(-c4ccc(F)c(Cl)c4)nc(N4CCCC4C)n3)CC2)n1` (stereo not drawn) [Example 918, 4-(3-chloro-4-fluorophenyl)-6-[4-(3-chloro-6-methoxypyridin-2-yl)piperazin-1-yl]-2-(2-methylpyrrolidin-1-yl)pyrimidine] showed a pIC50 of at least 6.00.
